# Active and inactive are the calls of the source.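 How the source made its calls: active means signal falls with dose and the fitted half-maximal concentration is at or below twice the top valid tested dose; inconclusive means flat curve with 30 to 70% inhibition, or poor fit; inactive means wrong direction, flat within 30%, or potency beyond limit.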
# Target: Golgi-associated PDZ and coiled-coil motif-containing protein (Homo sapiens) (UniProt Q9HD26)
# Experiment: blockers of CAL PDZ ligand groove binding – biochemical, fluorescence polarization, untagged CAL PDZ, cherry-pick, dose response (AID 602267);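 on activity change, negative = inhibition: 0% = DMSO neutral wells and -100% = excess unlabeled competitor peptide wells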
# Settings: purified CAL PDZ, TMR-peptide fluorescence polarization, 1 h
row,SMILES,AC50 [µM]
1,COc1ccc(OC)c(-c2c3cc(O)c(=O)cc-3oc3cc(O)c(O)cc23)c1,21.4
2,O=C(O)CSc1cc(NS(=O)(=O)c2cccc([N+](=O)[O-])c2)c2ccccc2c1O,15.9
3,COC(=O)c1ccccc1-c1c2ccc(=N)cc-2oc2cc(N)ccc12,2.03

# Same assay, conditions: purified CAL PDZ, TMR-peptide fluorescence polarization, 1 h; at 16 µM (top of the series)
row,SMILES,"activity change, negative = inhibition"
1,COc1ccc(N2CCN(C(=O)c3cccc4nc(C)oc34)CC2)cc1,inactive
2,CCOC(=O)C1(Cc2cccc(Cl)c2)CCCN(C(=O)c2cccc(C)n2)C1 (stereo not drawn),inactive
3,O=C(OCC(=O)N1CCOCC1)c1ccc[nH]c1=O,inactive

# Same assay, conditions: purified CAL PDZ, TMR-peptide fluorescence polarization, 1 h; at 50 µM (top of the series)
row,SMILES,"activity change, negative = inhibition"
1,CC(C)c1ccc(CNC(=O)C(=O)NCCCn2ccnc2)cc1,inactive
2,COC(=O)c1cccc([N+](=O)[O-])c1CS(=O)(=O)c1ccc(C)cc1,inactive
3,CCC1C(=O)NCCN1C(=O)CCc1nnc(CCc2ccc(OC)cc2)o1 (stereo not drawn),inactive
4,Cc1cccc(NC(=O)Cn2cnc3c(oc4ccccc43)c2=O)c1C,inactive
5,O=C(c1ccc(F)cc1Cl)N1CCC2(CC1)OCCO2,inactive
6,c1ccc(CNc2nc(NCc3ccccc3)c3ccccc3n2)cc1,inactive
7,CC1=C(C#N)C(=O)NC(=O)/C1=C\c1ccc(-c2cc(C)c(C)cc2[N+](=O)[O-])o1,inactive
8,Cc1cc(NC(=O)Cc2ccc(Br)cc2)no1,inactive
9,CC1(C2CC2)NC(=O)N(CC(=O)NCC(=O)Nc2ccc(F)c(F)c2F)C1=O (stereo not drawn),inactive
10,N=c1c(S(=O)(=O)c2ccc(Cl)cc2)cc2c(=O)n3ccccc3nc2n1C1CCCCC1,inactive
11,CN(C)S(=O)(=O)c1ccc(Cl)c(NC(=O)CSc2nnnn2-c2ccc(O)cc2)c1,inactive
12,Cc1ccc2nc3c(nc2c1)-c1ccccc1C3=O,inactive
13,O=C(COC(=O)c1ccccc1C(=O)N1CCN(c2ccccc2)CC1)NCc1ccccc1,inactive
14,COc1ccc(/C=C/C(=O)Nc2ccc3nc4n(c(=O)c3c2)CCCC4)cc1OC,inactive
15,COc1cc(NC(=O)c2cccs2)ccc1NC(=O)c1ccccc1Cl,inactive
16,c1ccc(C(Nc2cccnc2)c2ccccc2)cc1,inactive
17,Cc1ccccc1S(=O)(=O)NC(=NCc1ccc(F)cc1)c1ccccc1,inactive
18,C(=C/c1nccc2c1[nH]c1ccccc12)/c1ccc2c(c1)OCO2,inactive
19,CCCCNC(=O)c1ccc(-n2c(=S)[nH]c3ccccc3c2=O)cc1,inactive
20,Cc1ccc(C)c(N(CC(=O)NC(C)(C)C)C(=O)CCC(=O)Nc2nccs2)c1,inactive
21,CC(C)(C)OC(=O)N[C@@H](Cc1c[nH]c2ccccc12)c1nnc(SCC(N)=O)o1,inactive
22,S=C(NCCc1ccccc1)NC1CCC(NC(=S)NCCc2ccccc2)CC1 (stereo not drawn),inactive

row,SMILES,"activity change, negative = inhibition"
1,Cc1cccc(CN2CCc3c([nH]c4ccccc34)C2CC(C)C)n1 (stereo not drawn),inactive
2,CCOC(=O)/C(N=Nc1ccc2c(c1)OCO2)=C(\C)O,inactive
3,Cc1c(C)c2cc3c4c(oc3c(C)c2oc1=O)CCCC4,inactive
4,COc1cc(N(C)C)ccc1C=c1c2ccccc2n2c1cc(-c1ccccc1)[n+]2C,inactive
5,COc1ccc(/C=N/N2CCN(c3ccccc3OC)CC2)cc1Br,inactive
6,CCCC(=O)OCC(=O)Nc1ccccc1C#N,inactive
7,OC(c1ccccc1)(c1ccccc1)c1nccc2ccccc12,inactive
8,O=C(Nc1cc(Cl)ccc1N1CCOCC1)c1ccc2c(c1)OCCO2,inactive
9,CCCn1nnnc1NCc1cc(Br)ccc1OC,inactive
10,COn1c(SCc2ccccc2)nc2ccccc2c1=O,inactive
11,COc1ccc(Oc2nc3c(c(=O)n(C)c(=O)n3C)n2C)cc1,inactive
12,O=C(N/N=C/c1ccc(OCc2ccccc2)cc1)c1ccc(O)cc1,inactive
13,Cc1ccc(-c2[nH]c3ccccc3c2SCCN)cc1,inactive
14,COc1ccc2ccn(S(=O)(=O)c3ccccc3)c2c1,inactive
15,O=C1CC(c2ccccc2)=C(c2ccccc2)C1,inactive
16,CCN(C(=O)CSc1ncccc1C(=O)O)C1CCCCC1,inactive
17,COCCN(C(=S)Nc1ccccc1OC)C1CCN(C(C)C)CC1,inactive
18,CCOc1ccc(C(=O)NCC(=O)N2CCC(C)CC2)cc1OCC,inactive
19,Cc1ccc(S(=O)(=O)N2CCN(C(=O)N(C)C)CC2)cc1,inactive
20,CCCCN1CC(O)=C(c2nc(-c3ccc(Cl)cc3)cs2)C1=N,inactive
21,CCOC(=O)/C=C/C(=O)OCC(=O)Nc1ccc([N+](=O)[O-])cc1,inactive
22,Cc1ccc(CN(C(=O)c2ccco2)C(C(=O)NC2CCCC2)c2cccnc2)cc1 (stereo not drawn),inactive

row,SMILES,"activity change, negative = inhibition"
1,CN(C)c1ccc(C=c2c3cc(O)ccc3n3c2cc(-c2ccccc2)[n+]3C)cc1,inactive
2,O=C(CN1C(=O)NC2(CCCC2)C1=O)Nc1ccc(F)c(F)c1F,inactive
3,C=CCNC(=S)Nc1ccc(C)c(S(=O)(=O)N2CCCCC2)c1,inactive
4,CCn1c(=O)c(C(C)=O)c(O)c2ccccc21,inactive
5,COc1cc(OC)cc(C(=O)N[C@H](C(=O)Nc2nc3ccc(S(C)(=O)=O)cc3s2)C(C)C)c1,inactive
6,Cn1c(=O)c2c(nc(-c3ccc(N(CCCl)CCCl)cc3)n2C)n(C)c1=O,inactive
7,O=C(COc1ccccc1)N1CCCCCCC1,inactive
8,CC(CCCC(C)(C)O)NC(=O)c1ccc(OC2CCN(C(=O)C3CC3)CC2)cc1 (stereo not drawn),inactive
9,CN(C(=O)CC1C(=O)NCCN1CC(c1ccccc1)c1ccccc1)C(C1CC1)C1CC1 (stereo not drawn),inactive
10,CCCSC1=N/C(=C\c2ccc([N+](=O)[O-])o2)C(=O)S1,inactive
11,COc1cc(/C=C2\C(=O)NC(=O)N(c3ccccc3)C2=O)c([N+](=O)[O-])cc1OC,inactive
12,CC(C)CNC(=O)COC(=O)CCC(=O)c1ccc(Cl)cc1,inactive
13,O=C1CSC(=Nc2ccccc2Cl)N1,inactive
14,CCn1ncc(Br)c1C(=O)Nc1cccc(F)c1,inactive
15,COc1ccc(OC)c(NC(=O)c2ccc(OC3CSC3)cc2)c1,inactive
16,O=C(NC(Cc1c[nH]c2ccccc12)C(=O)O)/C(=C/c1ccc(F)cc1)NC(=O)c1ccccc1 (stereo not drawn),inactive
17,Cc1cc(NC(=O)CSc2nnc(-c3ccccc3)c(-c3ccccc3)n2)no1,inactive
18,Cc1nn(C)cc1CN(C)C(=O)c1nn2c(c1Br)NC(c1cccs1)CC2C(F)(F)F (stereo not drawn),inactive
19,CC1CCN(C(=O)COC(=O)c2cccs2)CC1,inactive
20,CCCOc1ccc(CC(=O)N/N=C\c2ccc(F)cc2)cc1,inactive
21,Cc1cc(/C=C2\SC(=O)N(C)C2=O)c(C)n1-c1ccc(O)cc1,inactive
22,COCCCNC(=O)c1cc(S(=O)(=O)N2CCOCC2)ccc1SCc1cccc(OC)c1OC,inactive

row,SMILES,"activity change, negative = inhibition"
1,CC(=O)Nc1ccc(N/C=C/C(=O)c2ccccc2)cc1,inactive
2,CN(C)C1(CNC(=O)C2CCC(=O)N(CCc3ccc(Cl)cc3)C2)CCCCC1 (stereo not drawn),inactive
3,CN(CC1CCCO1)S(=O)(=O)c1ccc(C(=O)Nc2ccc([N+](=O)[O-])cc2)cc1 (stereo not drawn),inactive
4,Cc1ccc(NC(=O)CN(C)CC(=O)Nc2cccc(F)c2)cc1S(=O)(=O)N1CCCCCC1,inactive
5,O=[N+]([O-])c1ccccc1/C=N/Nc1nc(N2CCCC2)nc(N2CCCC2)n1,inactive
6,CC(CN1CCCC1)OC(=O)C(c1ccccc1)c1ccccc1 (stereo not drawn),inactive
7,CC(=O)Nc1sc2c(c1C(c1ccccn1)N1CCN(C)CC1)CCCC2 (stereo not drawn),inactive
8,CCOc1ccc(S(=O)(=O)N2CCCCC2)c(C)c1C,inactive
9,C/C(=C/c1ccccc1)C(=O)N1CCN(c2ccccc2)CC1,inactive
10,Cc1ccc(F)cc1N=Cc1c(O)c2ccccc2oc1=O,inactive
11,COc1ccc(-c2nc3ccccc3o2)cc1OC,inactive
12,COC(=O)CN1C(=O)C(O)=C(C(C)=O)C1c1ccc([N+](=O)[O-])cc1 (stereo not drawn),inactive
13,C/C(CC(=O)Nc1ccc(C)c(Cl)c1)=N\NC(=O)Cc1cnc(N)s1,inactive
14,CCOCCCNC(=S)N1CCN(c2nc(-c3ccccc3)cs2)CC1,inactive
15,Nc1nc2ccccc2cc1S(=O)(=O)c1ccccc1,inactive
16,CCCc1cc2c(cc1NC(=O)c1ccco1)OCO2,inactive
17,CN(C)/N=C1\CCS(=O)(=O)c2sccc21,inactive
18,COc1ccc(N2CCN(C3CCCN(Cc4ccc(F)cc4)C3)CC2)cc1 (stereo not drawn),inactive
19,Cc1nc(Cl)sc1C(=O)Nc1cc(F)cc(F)c1,inactive
20,CC(=O)N1N=C(c2ccccc2)CC1c1ccccc1 (stereo not drawn),inactive
21,Cn1c(=O)c2c(nc(SCC(=O)NCC3CCCO3)n2Cc2ccc(F)cc2)n(C)c1=O (stereo not drawn),inactive

# — PubChem BioAssay AID602267 (Broad Institute, 2012)
